Assay results from US10150743B2, “Carboxylic acid compounds” (priority 2012, dated 2018).
pIC50: −log10 of the molar value.

Tests used:
human TLR8 = human TLR8 (Homo sapiens (Human), UniProt Q9NR97); assay: Human TLR8 assay (TLR8/NF-kB/SEAPorter HEK 293 Cell Line); type: cell-based; conditions: SEAP induction, overnight incubation at 37° C., 0.1% DMSO; read-out: TLR8 pEC50 (converted)
Source text: TLR8/NF-kB/SEAPorter™ HEK 293 Cell Line (Imgenex Corporation) is a stably co-transfected cell line which expresses full-length human TLR8 and the secreted alkaline phosphatase (SEAP) reporter gene under the transcriptional control of an NF-κB response element. TLR8 expression in this cell line has been tested by flow cytometry. Transfectants with stable expression were selected using the antibiotic blasticidin and geneticin. TLR signaling leads to the translocation of NF-κB and activation of the promoter results in expression of the SEAP gene. TLR8-specific activation was assessed by determining the level of SEAP produced following overnight incubation of the cells at 37° C. with the standard compound in the presence of 0.1% (v/v) dimethylsulfoxide (DMSO). Concentration dependent induction of SEAP production by compounds was expressed as the concentration of compound which produced half of the maximal level of SEAP induction for that compound (EC50).

CT26 mouse tumour cells = assay: Survival studies in CT26, a murine syngeneic colon carcinoma tumour model; type: in vivo; conditions: Balb/C mice; RT 2Gy x5 plus 30 mg/kg once a week p.o.; vs control or RT; FIG. 12
Description: Experiments were conducted on female mice (Balb/C genotype, at least 5 weeks old). CT26 mouse tumour cells (CRL-2638) were purchased from ATCC. CT26 mouse tumour cells (1×10^6) were implanted subcutaneously in the flank of mice on day 0. Mice in radiotherapy alone (RT) group and combination group were anesthetized and received radiation therapy (2Gy) at days 7, 8, 9, 10, and 11. Mice in combination group were also treated with a compound of Example 3 (30 mg/kg once a week) administered orally (p.o.) or Example 4 (5 mg/kg once a week) administered intravenously (i. v.) on days 7, 14, 22, and 27. Tumour volumes were assessed at least twice weekly by bilateral vernier caliper measurements. Survival period was determined by the time taken for tumours to reach 4 times the volume at the time of treatment.

hERG ion channel = hERG ion channel (Homo sapiens (Human), UniProt Q12809); assay: hERG Analysis - Method 1 (IONWORKS HT, CHO-hERG cells); type: cell-based; conditions: ~21° C.
Description: The hERG-expressing Chinese hamster ovary K1 (CHO) cells described by (Persson, Carlsson, Duker, & Jacobson, 2005) were grown to semi-confluence at 37° C. in a humidified environment (5% CO2) in F-12 Ham medium containing L-glutamine, 10% foetal calf serum (FCS) and 0.6 mg/mL hygromycin (all available from Sigma-Aldrich). Prior to use, the monolayer was washed using a pre-warmed (37° C.) 3 mL aliquot of Versene 1:5,000 (Invitrogen) After aspiration of this solution the flask was incubated at 37° C. in an incubator with a further 2 mL of Versene 1:5,000 for a period of 6 minutes. Cells were then detached from the bottom of the flask by gentle tapping and 10 mL of Dulbecco's Phosphate-Buffered Saline containing calcium (0.9 mM) and magnesium (0.5 mM) (PBS; Invitrogen) was then added to the flask and aspirated into a 15 mL centrifuge tube prior to centrifugation (50 g, for 4 mins). The resulting supernatant was discarded and the pellet gently re-suspended in 3 mL of PBS. A 0.5 mL aliquot of cell suspension was removed and the number of viable cells (based on trypan blue exclusion) was determined in an automated reader (Cedex; Innovatis) so that the cell re-suspension volume can be adjusted with PBS to give the desired final cell concentration. It is the cell concentration at this point in the assay that is quoted when referring to this parameter. CHO-Kv1.5 cells, which were used to adjust the voltage offset on IONWORKS™ HT, were maintained and prepared for use in the same way.
The principles and operation of this device have been described by (Schroeder, Neagle, Trezise, & Worley, 2003). Briefly, the technology is based on a 384-well plate (PATCHPLATE™) in which a recording was attempted in each well by using suction to position and hold a cell on a small hole separating two isolated fluid chambers. Once sealing had taken place, the solution on the underside of the PATCHPLATE™ was changed to one containing amphotericin B. This permeablises the patch of cell membrane covering the hole in each well and, in effect, allowed a perforated, whole-cell patch clamp recording to be made.
A β-test IONWORKS™ HT from Essen Instrument was used. […] (˜21° C.), as follows. The reservoir in the “Buffer” position was loaded with 4 mL of PBS and that in the “Cells” position with the CHO-hERG cell suspension described above. A 96-well plate (V-bottom, Greiner Bio-one) containing the compounds to be tested (at 3-fold above their final test concentration) was placed in the “Plate 1” position and a PATCHPLATE™ was clamped into the PATCHPLATE™ station. […]

hERG ion channel, sequence (Q12809 whole entry): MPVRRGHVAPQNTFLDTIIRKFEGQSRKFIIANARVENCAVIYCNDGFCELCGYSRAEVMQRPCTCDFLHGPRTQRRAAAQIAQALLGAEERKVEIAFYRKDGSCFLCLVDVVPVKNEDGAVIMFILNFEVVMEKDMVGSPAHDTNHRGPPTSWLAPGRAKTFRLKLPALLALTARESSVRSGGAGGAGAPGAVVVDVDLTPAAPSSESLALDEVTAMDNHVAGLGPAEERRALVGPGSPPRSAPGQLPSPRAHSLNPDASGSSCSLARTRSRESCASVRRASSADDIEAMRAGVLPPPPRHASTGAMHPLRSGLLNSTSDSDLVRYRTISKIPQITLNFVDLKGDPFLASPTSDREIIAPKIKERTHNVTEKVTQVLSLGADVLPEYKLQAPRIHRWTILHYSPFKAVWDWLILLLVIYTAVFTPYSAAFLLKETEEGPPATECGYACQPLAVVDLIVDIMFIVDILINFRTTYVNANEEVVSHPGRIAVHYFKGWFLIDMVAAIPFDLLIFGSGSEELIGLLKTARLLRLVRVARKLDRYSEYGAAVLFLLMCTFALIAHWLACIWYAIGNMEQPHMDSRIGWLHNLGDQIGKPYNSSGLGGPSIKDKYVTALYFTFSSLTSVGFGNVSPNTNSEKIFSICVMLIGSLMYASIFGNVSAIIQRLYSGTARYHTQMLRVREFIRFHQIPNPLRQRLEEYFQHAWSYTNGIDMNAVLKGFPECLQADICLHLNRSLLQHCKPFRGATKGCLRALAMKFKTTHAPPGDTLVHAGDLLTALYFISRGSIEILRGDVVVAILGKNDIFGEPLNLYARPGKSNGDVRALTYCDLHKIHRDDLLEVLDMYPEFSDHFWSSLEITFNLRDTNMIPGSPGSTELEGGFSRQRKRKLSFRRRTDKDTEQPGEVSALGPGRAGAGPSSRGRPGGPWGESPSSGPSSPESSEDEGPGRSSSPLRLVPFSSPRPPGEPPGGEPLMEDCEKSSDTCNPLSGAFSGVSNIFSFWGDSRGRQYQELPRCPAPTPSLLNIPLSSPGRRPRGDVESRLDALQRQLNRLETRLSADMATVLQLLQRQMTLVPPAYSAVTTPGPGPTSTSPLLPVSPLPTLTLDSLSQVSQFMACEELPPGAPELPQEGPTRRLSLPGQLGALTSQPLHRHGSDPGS
human TLR8, sequence (Q9NR97 27-1041): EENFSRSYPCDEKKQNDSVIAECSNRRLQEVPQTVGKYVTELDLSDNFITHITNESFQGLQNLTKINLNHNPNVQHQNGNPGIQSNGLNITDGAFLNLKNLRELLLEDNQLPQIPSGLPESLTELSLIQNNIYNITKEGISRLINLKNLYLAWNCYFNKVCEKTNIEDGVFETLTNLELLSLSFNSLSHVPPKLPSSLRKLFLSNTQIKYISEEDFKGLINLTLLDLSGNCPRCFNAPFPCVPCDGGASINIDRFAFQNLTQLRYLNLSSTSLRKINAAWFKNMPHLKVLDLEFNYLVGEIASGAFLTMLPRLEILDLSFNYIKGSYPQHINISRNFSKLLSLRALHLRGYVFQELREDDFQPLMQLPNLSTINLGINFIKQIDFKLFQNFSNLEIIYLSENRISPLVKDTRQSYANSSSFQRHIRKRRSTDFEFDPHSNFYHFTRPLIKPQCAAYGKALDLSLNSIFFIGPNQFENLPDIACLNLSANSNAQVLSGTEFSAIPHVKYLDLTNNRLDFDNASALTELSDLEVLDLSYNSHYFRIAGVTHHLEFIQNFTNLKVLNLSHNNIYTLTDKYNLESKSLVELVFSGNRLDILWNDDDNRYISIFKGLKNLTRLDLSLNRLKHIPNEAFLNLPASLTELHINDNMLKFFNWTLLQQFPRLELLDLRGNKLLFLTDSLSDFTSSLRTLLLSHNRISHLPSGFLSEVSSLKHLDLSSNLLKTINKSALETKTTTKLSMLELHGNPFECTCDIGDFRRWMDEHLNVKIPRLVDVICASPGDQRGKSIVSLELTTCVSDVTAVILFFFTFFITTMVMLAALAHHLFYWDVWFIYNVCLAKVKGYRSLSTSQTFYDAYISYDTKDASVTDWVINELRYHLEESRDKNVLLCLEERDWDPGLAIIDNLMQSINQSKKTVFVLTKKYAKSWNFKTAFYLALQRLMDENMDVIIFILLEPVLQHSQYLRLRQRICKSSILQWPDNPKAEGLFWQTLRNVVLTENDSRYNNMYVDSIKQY

CCC[C@@H](CCO)Nc1nc(N)nc(C)c1Cc1ccc(CN(CC(=O)O)CC(F)F)cc1OC [Example 3, (S)-2-((4-((2-amino-4-(1-hydroxyhexan-3-ylamino)-6-methylpyrimidin-5-yl)methyl)-3-methoxybenzyl)(2,2-difluoroethyl)amino)acetic acid]
EC50 (human TLR8): > 10 µM | Survival period (time for tumours to reach 4 times the volume at treatment) (CT26 mouse tumour cells): survived significantly longer | pIC50 (hERG ion channel): < 4.48
